# Assay results from patent publication US11236069B2, “KIF18A inhibitors” (AMGEN INC., priority 2018, dated 2022).
# Target: Recombinant human KIF18A (1-467 His-tagged) protein (Homo sapiens (Human), UniProt Q8NI77)
# Assay: KIF18A Enzyme Assay: microtubule-stimulated ATPase activity (ADP-Glo)
# Conditions: read-out: KIF18A ATPase IC50
# Text: KIF18A Enzyme Assay: Microtubule-stimulated ATPase activity assay is used to measure KIF18A enzyme activity after treatment with compound. Compounds were 2-fold serially diluted in DMSO (Sigma Inc) over 22-point concentration range. […] The assay measures ADP formed from the ATPase reaction.
# Recombinant human KIF18A (1-467 His-tagged) protein, sequence (Q8NI77 1-467): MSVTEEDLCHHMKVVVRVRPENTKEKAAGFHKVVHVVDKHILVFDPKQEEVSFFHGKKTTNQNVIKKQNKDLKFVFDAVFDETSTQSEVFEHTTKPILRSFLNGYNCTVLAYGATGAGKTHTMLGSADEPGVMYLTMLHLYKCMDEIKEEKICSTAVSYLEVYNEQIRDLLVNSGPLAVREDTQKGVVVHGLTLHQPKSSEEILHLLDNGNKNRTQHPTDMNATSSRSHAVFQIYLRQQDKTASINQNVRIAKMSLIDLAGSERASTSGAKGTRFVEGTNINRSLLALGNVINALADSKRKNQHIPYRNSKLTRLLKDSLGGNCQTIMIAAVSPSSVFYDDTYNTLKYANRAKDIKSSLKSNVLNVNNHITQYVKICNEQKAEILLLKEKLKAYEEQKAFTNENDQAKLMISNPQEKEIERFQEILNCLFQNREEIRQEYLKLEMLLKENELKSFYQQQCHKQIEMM
# Recombinant human KIF18A (1-467 His-tagged) protein, sequence (P02550 whole entry partner): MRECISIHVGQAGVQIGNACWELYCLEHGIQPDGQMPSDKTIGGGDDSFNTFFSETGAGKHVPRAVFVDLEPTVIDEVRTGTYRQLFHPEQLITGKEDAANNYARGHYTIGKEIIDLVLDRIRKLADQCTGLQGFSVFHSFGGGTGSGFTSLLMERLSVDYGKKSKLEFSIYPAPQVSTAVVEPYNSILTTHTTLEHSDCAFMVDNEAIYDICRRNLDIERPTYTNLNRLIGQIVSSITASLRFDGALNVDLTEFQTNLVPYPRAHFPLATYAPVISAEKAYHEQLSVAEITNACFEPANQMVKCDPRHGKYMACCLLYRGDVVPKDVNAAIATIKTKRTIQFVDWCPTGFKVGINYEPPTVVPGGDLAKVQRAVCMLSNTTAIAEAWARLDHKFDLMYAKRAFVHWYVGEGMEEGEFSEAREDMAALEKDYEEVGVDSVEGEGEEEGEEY
# Recombinant human KIF18A (1-467 His-tagged) protein, sequence (P02554 whole entry partner): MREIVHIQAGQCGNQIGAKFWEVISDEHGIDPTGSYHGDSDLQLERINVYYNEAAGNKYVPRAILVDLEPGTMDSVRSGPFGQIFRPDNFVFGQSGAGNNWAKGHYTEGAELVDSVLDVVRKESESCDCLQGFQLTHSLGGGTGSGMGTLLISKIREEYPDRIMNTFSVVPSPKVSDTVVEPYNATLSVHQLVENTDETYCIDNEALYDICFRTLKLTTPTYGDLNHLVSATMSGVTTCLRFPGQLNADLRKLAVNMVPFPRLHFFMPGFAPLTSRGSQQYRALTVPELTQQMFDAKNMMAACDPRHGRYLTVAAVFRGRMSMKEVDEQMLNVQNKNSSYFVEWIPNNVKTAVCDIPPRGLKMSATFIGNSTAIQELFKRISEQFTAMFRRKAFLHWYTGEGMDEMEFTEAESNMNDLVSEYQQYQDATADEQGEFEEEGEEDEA
row,Structure (SMILES),IC50
1,"Cc1cc(NC(=O)c2ccc(NS(=O)(=O)[C@H](C)CO)cc2N2CCC3(CC2)CC3)nc(N2CCC(F)(F)CC2)n1 [Example 5-1, (R)-N-(2-(4,4-Difluoropiperidin-1-yl)-6-methylpyrimidin-4-yl)-4-((2-hydroxy-1-methylethyl)sulfonamido)-2-(6-azaspiro[2.5]octan-6-yl)benzamide]",0.062 µM
2,"Cc1cc(NC(=O)c2ccc(NS(=O)(=O)[C@@H](C)CO)cc2N2CCC3(CC2)CC3)nc(N2CCC(F)(F)CC2)n1 [Example 5-2, (S)-N-(2-(4,4-Difluoropiperidin-1-yl)-6-methylpyrimidin-4-yl)-4-((2-hydroxy-1-methylethyl)sulfonamido)-2-(6-azaspiro[2.5]octan-6-yl)benzamide]",0.07 µM

# Same assay, conditions: read-out: KIF18A ATPase IC50; 30 nM KIF18A, 30 μg/mL pig microtubules, ATP at Km 75 μM, ADP-Glo luminescence
row,Structure (SMILES),IC50
1,"Cc1cc(NC(=O)c2ccc(S(C)(=O)=O)cc2N2CCC3(CC2)CC3)nc(N2CCC(F)(F)CC2)n1 [Example 2-6, N-(2-(4,4-Difluoropiperidin-1-yl)-6-methylpyrimidin-4-yl)-4-(methylsulfonyl)-2-(6-azaspiro[2.5]octan-6-yl)benzamide]",0.26 µM
2,"C[C@@H]1CN(c2nccc(NC(=O)c3ccc(S(C)(=O)=O)cc3N3CCC4(CC3)CC4)n2)CCO1 [Example 2-7, (R)-N-(2-(2-Methylmorpholino)pyrimidin-4-yl)-4-(methylsulfonyl)-2-(6-azaspiro[2.5]octan-6-yl)benzamide]",0.24 µM
3,"Cc1cc(NC(=O)c2ccc(NS(=O)(=O)C3(C)CC3)cc2N2CCC3(CC2)CC3)nc(N2CCC(F)(F)CC2)n1 [Example 2-8, N-(2-(4,4-Difluoropiperidin-1-yl)-6-methylpyrimidin-4-yl)-4-((1-methylcyclopropan)-1-sulfonamido)-2-(6-azaspiro[2.5]octan-6-yl)benzamide]",0.713 µM
4,"Cc1cc(NC(=O)c2ccc(NS(=O)(=O)CCO)cc2N2CCC3(CC2)CC3)nc(N2CCO[C@H](C)C2)n1 [Example 3, (R)-4-((2-Hydroxyethyl)sulfonamido)-N-(6-methyl-2-(2-methylmorpholino)pyrimidin-4-yl)-2-(6-azaspiro[2.5]octan-6-yl)benzamide]",0.057 µM
5,"Cc1cc(NC(=O)c2ccc(NS(=O)(=O)CF)cc2N2CCC3(CC2)CC3)nc(N2CCC(F)CC2)n1 [Example 6-1, 4-((Fluoromethyl)sulfonamido)-N-(2-(4-fluoropiperidin-1-yl)-6-methylpyrimidin-4-yl)-2-(6-azaspiro[2.5]octan-6-yl)benzamide]",0.062 µM
6,"Cc1cc(NC(=O)c2ccc(NS(=O)(=O)CF)cc2N2CCC3(CC2)CC3)nc(N2CCO[C@H](C)C2)n1 [Example 6-3, (R)-4-((Fluoromethyl)sulfonamido)-N-(6-methyl-2-(2-methylmorpholino)pyrimidin-4-yl)-2-(6-azaspiro[2.5]octan-6-yl)benzamide]",0.079 µM
7,"C[C@@H]1CN(c2nccc(NC(=O)c3ccc(NS(=O)(=O)CCO)cc3N3CCC4(CC3)CC4)n2)CCO1 [Example 6-4, (R)-4-((2-Hydroxyethyl)sulfonamido)-N-(2-(2-methylmorpholino)pyrimidin-4-yl)-2-(6-azaspiro[2.5]octan-6-yl)benzamide]",0.032 µM
8,"Cc1cc(NC(=O)c2ccc(NS(C)(=O)=O)cc2N2CCC3(CC2)CC3)nc(N2CCO[C@H](C)C2)n1 [Example 6-5, (R)-N-(6-Methyl-2-(2-methylmorpholino)pyrimidin-4-yl)-4-(methylsulfonamido)-2-(6-azaspiro[2.5]octan-6-yl)benzamide]",0.12 µM
9,"CCS(=O)(=O)Nc1ccc(C(=O)Nc2cc(C)nc(N3CCO[C@H](C)C3)n2)c(N2CCC3(CC2)CC3)c1 [Example 6-6, (R)-4-(Ethylsulfonamido)-N-(6-methyl-2-(2-methylmorpholino)pyrimidin-4-yl)-2-(6-azaspiro[2.5]octan-6-yl)benzamide]",0.067 µM
10,"Cc1cc(NC(=O)c2ccc(NS(=O)(=O)CCCO)cc2N2CCC3(CC2)CC3)nc(N2CCO[C@H](C)C2)n1 [Example 6-8, (R)-4-((3-Hydroxypropyl)sulfonamido)-N-(6-methyl-2-(2-methylmorpholino)pyrimidin-4-yl)-2-(6-azaspiro[2.5]octan-6-yl)benzamide]",0.107 µM
11,"Cc1cc(NC(=O)c2ccc(N3CCOCS3(=O)=O)cc2N2CCC3(CC2)CC3)nc(N2CCC(F)(F)CC2)n1 [Example 6-9, N-(2-(4,4-Difluoropiperidin-1-yl)-6-methylpyrimidin-4-yl)-4-(3,3-dioxido-1,3,4-oxathiazinan-4-yl)-2-(6-azaspiro[2.5]octan-6-yl)benzamide]",0.246 µM
12,"Cc1cc(NC(=O)c2ccc(NS(=O)(=O)C3CCC3)cc2N2CCC3(CC2)CC3)nc(N2CC(F)(F)C2)n1 [Example 6-13, 4-(Cyclobutanesulfonamido)-N-(2-(3,3-difluoroazetidin-1-yl)-6-methylpyrimidin-4-yl)-2-(6-azaspiro[2.5]octan-6-yl)benzamide]",0.052 µM
13,"Cc1cc(NC(=O)c2ccc(NS(=O)(=O)C(C)(C)C)cc2N2CCC3(CC2)CC3)nc(N2CCC(F)(F)CC2)n1 [Example 6-14, N-(2-(4,4-Difluoropiperidin-1-yl)-6-methylpyrimidin-4-yl)-4-((1,1-dimethylethyl)sulfonamido)-2-(6-azaspiro[2.5]octan-6-yl)benzamide]",0.413 µM
14,"Cc1cc(NC(=O)c2ccc(NS(=O)(=O)C(C)(C)CO)cc2N2CCC3(CC2)CC3)nc(N2CCC(F)(F)CC2)n1 [Example 6-20, N-(2-(4,4-Difluoropiperidin-1-yl)-6-methylpyrimidin-4-yl)-4-((2-hydroxy-1,1-dimethylethyl)sulfonamido)-2-(6-azaspiro[2.5]octan-6-yl)benzamide]",0.049 µM
15,"Cc1cc(NC(=O)c2ccc(NS(=O)(=O)C(C)C)cc2N2CCC3(CC2)CC3)nc(N2CCC(F)(F)CC2)n1 [Example 6-22, N-(2-(4,4-Difluoropiperidin-1-yl)-6-methylpyrimidin-4-yl)-4-((1-methylethyl)sulfonamido)-2-(6-azaspiro[2.5]octan-6-yl)benzamide]",0.151 µM
16,"Cc1cc(NC(=O)c2ccc(NS(=O)(=O)[C@@H](C)CO)cc2N2CCC3(CC2)CC3)nc(N2CCO[C@H](C)C2)n1 [Example 6-23-1, 4-(((S)-2-Hydroxy-1-methylethyl)sulfonamido)-N-(6-methyl-2-((R)-2-methylmorpholino)pyrimidin-4-yl)-2-(6-azaspiro[2.5]octan-6-yl)benzamide]",0.039 µM

# Next, values leading:
row,IC50,Structure (SMILES)
1,0.042 µM,"Cc1cc(NC(=O)c2ccc(NS(=O)(=O)CF)cc2N2CCC3(CC2)CC3)nc(N2CCC(F)(F)CC2)n1 [Example 6-2, N-(2-(4,4-Difluoropiperidin-1-yl)-6-methylpyrimidin-4-yl)-4-((fluoromethyl)sulfonamido)-2-(6-azaspiro[2.5]octan-6-yl)benzamide]"
2,0.122 µM,"CCS(=O)(=O)Nc1ccc(C(=O)Nc2cc(C)nc(N3CCC(F)(F)CC3)n2)c(N2CCC3(CC2)CC3)c1 [Example 6-7, N-(2-(4,4-Difluoropiperidin-1-yl)-6-methylpyrimidin-4-yl)-4-(ethylsulfonamido)-2-(6-azaspiro[2.5]octan-6-yl)benzamide]"
3,2.42 µM,"Cc1cc(NC(=O)c2ccc(NS(=O)(=O)C3CCCC3)cc2N2CCC3(CC2)CC3)nc(N2CCC(F)(F)CC2)n1 [Example 6-10, 4-(Cyclopentanesulfonamido)-N-(2-(4,4-difluoropiperidin-1-yl)-6-methylpyrimidin-4-yl)-2-(6-azaspiro[2.5]octan-6-yl)benzamide]"
4,0.127 µM,"Cc1cc(NC(=O)c2ccc(NS(=O)(=O)C3CCC3)cc2N2CCC3(CC2)CC3)nc(N2CCC(F)(F)CC2)n1 [Example 6-11, 4-(Cyclobutanesulfonamido)-N-(2-(4,4-difluoropiperidin-1-yl)-6-methylpyrimidin-4-yl)-2-(6-azaspiro[2.5]octan-6-yl)benzamide]"
5,0.04 µM,"Cc1cc(NC(=O)c2ccc(NS(=O)(=O)C3COC3)cc2N2CCC3(CC2)CC3)nc(N2CCC(F)(F)CC2)n1 [Example 6-12, N-(2-(4,4-Difluoropiperidin-1-yl)-6-methylpyrimidin-4-yl)-4-(oxetane-3-sulfonamido)-2-(6-azaspiro[2.5]octan-6-yl)benzamide]"
6,0.086 µM,"Cc1cc(NC(=O)c2ccc(NS(=O)(=O)CCCO)cc2N2CCC3(CC2)CC3)nc(N2CCC(F)(F)CC2)n1 [Example 6-15, N-(2-(4,4-Difluoropiperidin-1-yl)-6-methylpyrimidin-4-yl)-4-((3-hydroxypropyl)sulfonamido)-2-(6-azaspiro[2.5]octan-6-yl)benzamide]"
7,0.052 µM,"Cc1cc(NC(=O)c2ccc(NS(=O)(=O)C3CC3)cc2N2CCC3(CC2)CC3)nc(N2CCC(F)(F)CC2)n1 [Example 6-16, 4-(Cyclopropanesulfonamido)-N-(2-(4,4-difluoropiperidin-1-yl)-6-methylpyrimidin-4-yl)-2-(6-azaspiro[2.5]octan-6-yl)benzamide]"
8,0.032 µM,"COCCS(=O)(=O)Nc1ccc(C(=O)Nc2cc(C)nc(N3CCC(F)(F)CC3)n2)c(N2CCC3(CC2)CC3)c1 [Example 6-17, N-(2-(4,4-Difluoropiperidin-1-yl)-6-methylpyrimidin-4-yl)-4-((2-methoxyethyl)sulfonamido)-2-(6-azaspiro[2.5]octan-6-yL)benzamide]"
9,0.085 µM,"Cc1cc(NC(=O)c2ccc(NS(=O)(=O)CC3CC3)cc2N2CCC3(CC2)CC3)nc(N2CCC(F)(F)CC2)n1 [Example 6-18, 4-((Cyclopropylmethyl)sulfon-amido)-N-(2-(4,4-difluoropiperidin-1-yl)-6-methylpyrimidin-4-yl)-2-(6-azaspiro[2.5]octan-6-yl)benzamide]"
10,0.039 µM,"Cc1cc(NC(=O)c2ccc(NS(=O)(=O)CC3(O)COC3)cc2N2CCC3(CC2)CC3)nc(N2CCC(F)(F)CC2)n1 [Example 6-19, N-(2-(4,4-Difluoropiperidin-1-yl)-6-methylpyrimidin-4-yl)-4-(((3-hydroxyoxetan-3-yl)methyl)sulfonamido)-2-(6-azaspiro[2.5]octan-6-yl)benzamide]"
11,0.039 µM,"Cc1cc(NC(=O)c2ccc(NS(C)(=O)=O)cc2N2CCC3(CC2)CC3)nc(N2CCC(F)(F)CC2)n1 [Example 6-21, N-(2-(4,4-Difluoropiperidin-1-yl)-6-methylpyrimidin-4-yl)-4-(methylsulfonamido)-2-(6-azaspiro[2.5]octan-6-yl)benzamide]"
